Read-outs that look alike come from different tables or passages of the source.

The subject of data set [1] is Dry Yeast-Induced Rat Fever Models. Nature of the data set: Antipyretic effect on dry yeast-induced fever in rats. The format is in vivo, SD rats. The note with it: rectal temperature, 10 mg/kg intraperitoneal, 20 min before 20% dry yeast s.c. How it is done:
Experimental method: Male SD rats, aged 4 weeks, were randomly grouped, with 10 rats in each group. […] The rats were intraperitoneally injected with saline, the compounds of the present disclosure or the control drug flurbiprofen respectively, all of which were administered at a dose of 10 mg/kg and a dosing volume of 10 μL/g. At 20 min after administration, 20% active dry yeast suspension was injected subcutaneously. After modeling, the rectal temperatures were measured at 4 h and 8 h.

In another data set the test system is NUGC-4. The data set can be described thus: Antitumor potency, MTT method, NUGC-4. The class given is cell-based. To be noted: Homo sapiens, 72 h incubation. How it is done:
(§1) Experimental method: The antitumor potency was tested by the MTT method. Tumor cells at the logarithmic phase were collected. The concentration of the cell suspension was adjusted. 100 μL of the cell suspension was added to each well. Cell plating was carried out and the cell density was adjusted to 1000 to 10000/well (the marginal wells were filled with sterile PBS). The cells were incubated at 5% CO2 and 37° C. until the cells adhered to the wall (96-well flat-bottomed plate). Drugs of different concentration gradients were added, 100 μL per well. Four replicates were set up. Under the conditions of 5% CO2 and 37° C., the cells were incubated for 72 h and observed under an inverted microscope. The prepared MTT solution (5 mg/mL) was added to the 96-well plate, 20 μL per well, mixed well, and incubated for 4 h under the conditions of 37° C. and 5% CO2. Afterwards, the liquid in the plate was discarded. 150 μL of DMSO was added to each well and oscillated for 3 min on a microplate reader. The OD value (optical density) was detected at 490 nm.
(§2) The inhibition rate of the drug against the tumor cell growth was calculated according to the following formula: […]

For another data set, the system named is U87. The data set can be described thus: Antitumor potency, MTT method, U87. The class given is cell-based. To be noted: Homo sapiens, U-87 MG, 72 h incubation. How it is done: as §1, §2
Background: Formazan colour is commonly taken as a measure of viable cells.

Another data set has as its system U251. The data set can be described thus: Antitumor potency, MTT method, U251. The class given is cell-based. The note with it: Homo sapiens, U-251, 72 h incubation. How it is done: as §1, §2
The test system of a further data set is Eca-109. The data set can be described thus: Antitumor potency, MTT method, Eca-109. The format is cell-based. The note with it: Homo sapiens, 72 h incubation. How it is done:
as §1, §2

In another data set the test system is MM.1S. The data set can be described thus: Antitumor potency, MTT method, MM.1S. The note with it: Homo sapiens, MM1.S, 72 h incubation. The format is cell-based. How it is done:
as §1, §2

The next data set has as its system rats with CIA. Nature of the data set: Analgesic and anti-inflammatory effects on collagen-induced rheumatoid arthritis (CIA) in rats. The class given is in vivo, Lewis rats. The note with it: for paw volume effect as compared to the flurbiprofen group: left hind limb, 14-day intervention, 10 mg/kg (FIG. 3); for MWT effect as compared to the flurbiprofen group: left lower limb, 13-day intervention, 10 mg/kg (FIG. 4). How it is done:
Experimental method: Female Lewis rats, aged 6-8 weeks, were randomly grouped, with 8 rats in each group. Under the ambient temperature of 20.5° C. to 24.5° C. and the humidity of 40% to 70%, the light period was 12-h bright and 12-h dark. Type II collagen was mixed with Freund's incomplete adjuvant (IFA) at a ratio of 1:1 and fully emulsified on ice before use. 100 μL of the mixed solution was injected intradermally at the part 2 to 3 cm from the base of the rat tail, and 50 μL of the mixed solution was injected into the bases of both hind limbs separately. The rats in the blank control group were injected with an equal volume of saline. IFA was used for re-immunization 7 days later. […] Rats with a total score of more than 2 on both hind limbs were selected and randomly divided into a model group, a flurbiprofen group, a compound 33 group, a compound 2 group, a compound 13 group, a compound 20 group, and a compound 35 group according to the body weight, score and paw volume, and furthermore a blank control group was set up, with 8 rats in each group. The dosing […] was […], and the dosing time was 14 days. A corresponding volume of solvent was administered in the model group and the blank control group.
Test indicators: body weight, arthritis score, hind limb paw volume, and mechanical foot threshold (MWT).
Standard for arthritis score: 0=normal; 1=erythema and slight swelling observed at the ankle joint; 2=erythema and slight swelling observed from the ankle joint to the metatarsal joint or the metacarpal joint; 3=erythema and moderate swelling observed from the ankle joint to the metatarsophalangeal joint or the metacarpal joint; 4=erythema and severe swelling observed from the ankle joint to the metatarsal joint; the total score of all (four) paws was calculated, and the sum of the arthritis indices was up to 16 per rat.

Data set [2] in a line: In vivo pharmacokinetic assay in rats (gavage, plasma). To be noted: female, Sprague Dawley, po, prototype drug in rat plasma, dose equimolar to 50 mg/kg flurbiprofen; for half-life: read-out: Prototype Drug t1/2 (converted). How it is done:
Experimental method: Adult female Sprague Dawley rats, aged 8-10 weeks and weighing 200±20 g, were randomly grouped, with 3 rats in each group. Rats in each of the groups were administered by gavage at a dose of 50 mg/kg of flurbiprofen and an equimolar dose of other example compounds to 50 mg/kg of flurbiprofen, respectively. After gavage administration, blood was collected at 0.0833 […], and 24 h into sodium heparin anticoagulant tubes, respectively. The blood was collected by the following method: 250 μL of blood were collected from the orbital venous plexuses of the rats. After blood collection, the blood samples were centrifuged at 12000 rpm in a centrifuge for 5 min. All plasma was aspirated into a 1.5-mL centrifuge tube, and the plasma was stored in a refrigerator at -80° C. The pharmacokinetic parameters were determined by the external standard curve method. Sample processing: after the cryopreserved samples were removed and restored to room temperature, the samples were vortexed evenly and then diluted two folds with methanol; the sample solution was diluted 5 folds by adding a mixed extractant of 0.5% formic acid-containing acetonitrile:methanol=7:3, and subjected to vortex oscillation for 1 min. Subsequently, the resultant was centrifuged at 4° C. and 12000 rpm for 10 min, and then 5 μL of the supernatant was measured for assay. The pharmacokinetic parameters in the Examples were calculated using the Winnonlin software.

For a further data set, the system named is H460. The data set can be described thus: Antitumor potency, MTT method, H460. The class given is cell-based. To be noted: Homo sapiens, NCI-H460, 72 h incubation. How it is done:
as §1, §2

Data set [3] deals with λ-Carrageenan-Induced Rat Toe Swelling. The data set can be described thus: Anti-inflammatory effect on λ-carrageenan-induced rat toe swelling. The note with it: Rattus norvegicus, ip, 10 mg/kg intraperitoneal, 1 h before 1% λ-carrageenan. The format is in vivo, SD rats. How it is done: Experimental method: Male SD rats weighing 150-160 g were randomly grouped, with 10 rats in each group. The rats were intraperitoneally injected with saline, the compounds of the present disclosure, and the control drug flurbiprofen or flurbiprofen axetil respectively, all of which were administered at a dose of 10 mg/kg and a dosing volume of 10 μL/g. At 1 h after administration, 100 μL of 1% λ-carrageenan was injected into the right hind toe of each rat to induce inflammation. Afterwards, the paw volume was measured every 1 h using a paw volume meter to calculate the swelling inhibition rate.

Setting [4] is: 6 h, read-out: Toe Swelling Inhibition Rate at 6 h.
[5] abbreviates: 24 h, read-out: Toe Swelling Inhibition Rate at 24 h.

As to `CC(C(=O)OCOC(=O)N1CCOCC1)c1ccc(-c2ccccc2)c(F)c1` (stereo not drawn) [Compound 2], in [1], the “Temp. at 4 h After Dosing” value was found to be 37.10 ± 0.17 °C. For the same compound, the “Temp. at 8 h After Dosing” value in data set [1] was 37.32 ± 0.27 °C. Also, the IC50 in the data set on NUGC-4 was 60 µM; in the data set with U87 it was more than 100 µM; with U251 it was more than 100 µM; in the data set on Eca-109, 55.7 µM; in the data set with MM.1S, 41.7 µM; with H460, 90 µM. Moreover, the “paw volume effect as compared to the flurbiprofen group” value in the data set with rats with CIA is on record as “better effects”. For the same compound, the “MWT effect as compared to the flurbiprofen group” value in the data set on rats with CIA is “slightly better or better effects”. This compound also came in with an AUC in data set [2] of 183 ± 85.9 ng·h/mL. Moreover, in data set [2], the highest concentration (Cmax) came to 27.1 ± 7.2 ng/mL. Moreover, the half-life in [2] is 14 ± 9.88 h. The inhibition in vivo at 10 mg/kg amounted to 42.9% in [3] (setting [4]) and 34.1% in [3] (setting [5]).

As for `Cc1cc(CO)c(O)c(COC(=O)C(C)c2ccc(-c3ccccc3)c(F)c2)c1` (stereo not drawn) [Compound 33], the “Temp. at 4 h After Dosing” value in data set [1] was found to be 37.18 ± 0.18 °C. The “Temp. at 8 h After Dosing” value in data set [1] is 37.27 ± 0.28 °C. Moreover, the IC50 with NUGC-4, in the data set with U87, in the data set with U251, in the data set with Eca-109, in the data set on MM.1S and in the data set with H460 was more than 100 µM in each case. Further, the “paw volume effect as compared to the flurbiprofen group” value in the data set on rats with CIA is on record as “better effects”. Also, the “MWT effect as compared to the flurbiprofen group” value with rats with CIA is reported as “slightly better or better effects”. The AUC in data set [2] worked out at 8.75 ± 1.53 ng·h/mL. In data set [2], this compound returned a Cmax of 1.56 ± 0.509 ng/mL. Also, the half-life in data set [2] was 9.08 ± 1.44 h. Moreover, the inhibition in vivo at 10 mg/kg in data set [3] (setting [4]) was found to be 55.5%; in data set [3] (setting [5]), 35.8%.

What is called IC50 is the concentration that inhibits the measured activity by half. A word on the AUC: it is the area under the concentration-time curve, a measure of exposure. Lower therefore signals low exposure. In general, Cmax refers to the peak of the concentration-time curve.
